What was measured:
[1] = Stability of 100 mg/ml NUC-3373 surfactant solution; format: physicochemical
Protocol: The successful development of the Diluent Solution to enable preparation of the NUC-1031 aqueous formulation prompted its development for an aqueous formulation of NUC-3373. An aqueous NUC-3373 formulation was developed by adding 6.7 ml of a 250 mg/ml solution of NUC-3373 in 80% DMA:20% 0.9% saline to 10 ml diluent solution to generate a 100 mg/ml NUC-3373 surfactant solution (see Table 4), prior to subsequent dilution into an infusion bag.

[2] = versus 5-FU; cited from earlier work
cancer = assay: Clinical trial of NUC-3373; format: in vivo; conditions: infusion solutions prepared as in Example 3; early results
Source text: In a clinical trial of NUC-3373, this administration methodology has allowed NUC-3373 to be successfully administered via a CVAD.

With `C[C@H](NP(=O)(OC[C@H]1O[C@@H](n2cc(F)c(=O)[nH]c2=O)CC1O)Oc1cccc2ccccc12)C(=O)OCc1ccccc1` (stereo partly drawn) [NUC-3373, 5-fluoro-2′-deoxyuridine-5′-O-[1-naphthyl (benzoxy-L-alaninyl)] phosphate] the Assay content ([1]; 0 hours, 5° C.) was 105.5 mg/mL, the Purity ([1]; 0 hours, 5° C.) was 96.1 % area and the pH ([1]; 0 hours, 5° C.) was 7.8. It also gave an Assay content ([1]; 0 hours, 20° C.) of 104.8 mg/mL, a Purity ([1]; 0 hours, 20° C.) of 96.2 % area and a pH ([1]; 0 hours, 20° C.) of 7.8. The Assay content ([1]; 8 hours, 5° C.) was 102.5 mg/mL, the Purity ([1]; 8 hours, 5° C.) was 96.2 % area and the pH ([1]; 8 hours, 5° C.) was 7.9. The Assay content ([1]; 8 hours, 20° C.) was 100.7 mg/mL, the Purity ([1]; 8 hours, 20° C.) was 96.1 % area and the pH ([1]; 8 hours, 20° C.) was 7.8. For the same compound, the Assay content ([1]; 24 hours, 5° C.) was 103.7 mg/mL, the Purity ([1]; 24 hours, 5° C.) was 96.1 % area and the pH ([1]; 24 hours, 5° C.) was 7.9. It also gave an Assay content ([1]; 24 hours, 20° C.) of 99.1 mg/mL, a Purity ([1]; 24 hours, 20° C.) of 96.1 % area and a pH ([1]; 24 hours, 20° C.) of 7.8. The Assay content ([1]; 48 hours, 5° C.) was 102.4 mg/mL, the Purity ([1]; 48 hours, 5° C.) was 96.1 % area and the pH ([1]; 48 hours, 5° C.) was 7.9. For the same compound, the Assay content ([1]; 48 hours, 20° C.) was 99.4 mg/mL, the Purity ([1]; 48 hours, 20° C.) was 96.2 % area and the pH ([1]; 48 hours, 20° C.) was 7.9. For the same compound, the Stability ([1]; for 48 hours at 5° C. and 20° C.) was “stable”, the Tolerability [2] was “significantly better tolerated than 5-FU” and the “Efficacy in treating cancer” value (cancer) was “some efficacy in treating cancer”.
